# Assay results published in patent publication US7989442B2, “Progesterone receptor modulators” (N.V. Organon, priority 2006, dated 2011).
# Tests used:
# [1] = tested on: mature cyclic rats; experiment: Ovulation inhibition in rat after oral administration (in vivo progestagenic activity); details: 96 h, minimal active dose: average number of ova reduced by 60% relative to placebo, oral administration for 1 complete cycle (4 days), read-out: MAD
# Procedure: Ovulation inhibition after oral administration of the compounds of the invention was studied in mature cyclic rats. Animals were treated with test compound (oral administration) for 1 complete cycle (4 days, from oestrus to pro-oestrus) and the number of ova in the oviduct was microscopically assessed at autopsy in the morning of the next (expected) oestrus. The average number of ova per rat was calculated; the minimal active dose (MAD) is defined as the level at which the average number of ova is reduced by 60% relative to placebo-treated animals.
Compound,minimal effective dose [1],melting point
"N#Cc1cc2c(cc1F)Oc1ccccc1[C@@H]1[C@@H](NC(=O)C(F)(F)F)CCCN21 (stereo in doubt) [Example 2, (−)-(cis)-N-(7-cyano-8-fluoro-1,3,4,14b-tetrahydro-2H-dibenzo [b,f]pyrido[1,2-d][1,4]oxazepin-1-yl)-2,2,2-trifluoroacetamide]",0.014 mg/kg,–
"N#Cc1c(F)cc2c(c1Cl)N1CCC[C@H](NC(=O)C(F)(F)F)[C@H]1c1ccccc1O2 (stereo in doubt) [Example 3, (−)-(cis)-N-[6-chloro-7-cyano-8-fluoro-1,3,4,14b-tetrahydro-2H-dibenzo [b,f]pyrido[1,2-d][1,4]oxazepin-1-yl]-2,2,2-trifluoroacetamide]",0.08 mg/kg,–
"N#Cc1c(F)cc2c(c1C#N)N1CCC[C@H](NC(=O)C(F)(F)F)[C@H]1c1ccccc1O2 (stereo in doubt) [Example 4, (−)-(cis)-N-(6,7-dicyano-8-fluoro-1,3,4,14b-tetrahydro-2H-dibenzo [b,f]pyrido[1,2-d][1,4]oxazepin-1-yl)-2,2,2-trifluoroacetamide]",0.02 mg/kg,–
"N#Cc1c(F)cc2c(c1Cl)N1CCC[C@H](NC(=O)C(F)(F)F)[C@H]1c1ccc(F)cc1O2 (stereo in doubt) [Example 5, (−)-(cis)-N-(6-chloro-7-cyano-8,12-difluoro-1,3,4,14b-tetrahydro-2H-dibenzo [b,f]pyrido[1,2-d][1,4]oxazepin-1-yl)-2,2,2-trifluoroacetamide]",≤ 0.025 mg/kg,174 to 175 °C
"CC(=O)N[C@H]1CCCN2c3c(cc(F)c(C#N)c3Cl)Oc3cccc(F)c3[C@H]12 (stereo in doubt) [Example 6, (−)-(cis)-N-(6-chloro-7-cyano-8,14-difluoro-1,3,4,14b-tetrahydro-2H-dibenzo [b,f]pyrido[1,2-d][1,4]oxazepin-1-yl)acetamide]",< 0.02 mg/kg,–
"N#Cc1c(F)cc2c(c1Cl)N1CCC[C@H](NC(=O)C(F)(F)F)[C@H]1c1cccc(F)c1O2 (stereo in doubt) [Example 7, (−)-(cis)-N-(6-chloro-7-cyano-8,11-difluoro-1,3,4,14b-tetrahydro-2H-dibenzo [b,f]pyrido[1,2-d][1,4]oxazepin-1-yl)-2,2,2-trifluoroacetamide]",0.025 mg/kg,–
"N#Cc1cc2c(cc1F)Oc1cccc(F)c1[C@@H]1[C@@H](NC(=O)C(F)(F)F)CCCN21 (stereo in doubt) [Example 8, (−)-(cis)-N-(7-cyano-8,14-difluoro-1,3,4,14b-tetrahydro-2H-dibenzo [b,f]pyrido[1,2-d][1,4]oxazepin-1-yl)-2,2,2-trifluoroacetamide]",0.01 mg/kg,–
"N#Cc1c(F)cc2c(c1Cl)N1CCC[C@H](NC(=O)C(F)(F)F)[C@H]1c1c(F)cccc1O2 (stereo in doubt) [Example 9, (−)-(cis)-N-(6-chloro-7-cyano-8,14-difluoro-1,3,4,14b-tetrahydro-2H-dibenzo [b,f]pyrido[1,2-d][1,4]oxazepin-1-yl)-2,2,2-trifluoroacetamide]",< 0.02 mg/kg,–
"CC(=O)c1cccc2c1N1CCC[C@H](NC(=O)C(F)(F)F)[C@H]1c1ccccc1O2 [eutomer of example 52 of WO03/ 084963, reference compound]",> 4 mg/kg,–
"C=Cc1cccc2c1N1CCC[C@H](NC(=O)C(F)(F)F)[C@H]1c1ccccc1O2 [eutomer of example 54 of WO03/ 084963, reference compound]",> 4 mg/kg,–
"N#Cc1cc(F)cc2c1N1CCC[C@H](NC(=O)C(F)(F)F)[C@H]1c1ccccc1O2 [eutomer of example 58 of WO03/ 084963, reference compound]",0.38 mg/kg,–
"N#Cc1ccc2c(c1)N1CCC[C@H](NC(=O)C(F)(F)F)[C@H]1c1ccccc1O2 [eutomer of example 63 of WO03/ 084963, reference compound]",~4 mg/kg,–
"CC(=O)N[C@H]1CCCN2c3c(ccc(Cl)c3Cl)Oc3ccccc3[C@H]12 [example 47 of WO03/ 084963, reference compound]",> 4 mg/kg,–
"CC(=O)c1cc(F)cc2c1N1CCC[C@H](NC(=O)C(F)(F)F)[C@H]1c1ccccc1O2 [example 57 of WO03/ 084963, reference compound]",> 4 mg/kg,–
"C=Cc1cc(F)cc2c1N1CCC[C@H](NC(=O)C(F)(F)F)[C@H]1c1ccccc1O2 [example 59 of WO03/ 084963, reference compound]",> 4 mg/kg,–
"Cc1cc(F)cc2c1N1CCC[C@H](NC(=O)C(F)(F)F)[C@H]1c1ccccc1O2 [example 60 of WO03/ 084963, reference compound]",~1 mg/kg,–
